The values below come from patent publication US12152029B2, “Crystalline forms of a MAGL inhibitor” (H. Lundbeck A/S, priority 2021, dated 2024).

Type in all cases: physicochemical
Data set [1] in a line: Dynamic vapour sorption (DVS). Conditions: for water uptake up to 90% RH / hygroscopicity by DVS analysis: 25° C.; for water uptake up to 90% RH: 0% RH to 90% RH; for hygroscopicity by DVS analysis: up to 90% RH; for Hygroscopicity in DVS, uptake at 90% RH: Table 3, 90% RH; for solid form by XRPD analysis after DVS analysis: after DVS cycle. How it is done:
Dynamic vapour sorption (DVS) was measured using a SMS DVS Intrinsic moisture sorption analyser changing the relative humidity from 0% RH to 90% RH. The sample temperature was maintained at 25° C. The humidity was controlled by mixing streams of dry and wet nitrogen, with a total flow rate of 200 ml/min. The relative humidity was measured by a calibrated Rotronic probe (dynamic range of 1.0-100% RH), located near the sample. The weight change of the sample as a function of % RH was constantly monitored by a balance.
Typically, 5-30 mg of sample was placed in a tared mesh stainless steel basket under ambient conditions. The sample was loaded and unloaded at 40% RH and 25° C. (typical room conditions).

Data set [2] can be described thus: Stability of HCl salt forms at accelerated (elevated) conditions. As to conditions: for Stability at elevated conditions: Table 3. As to the method:
To further elucidate differences between the hydrochloride salt forms, their stability at accelerated conditions and their hygroscopicity was measured. The data are summarized in Table 3 together with the observations reported in Example 20.

The nature of data set [3]: Competitive slurry experiments between Compound (I) form 1 and form 7. As to conditions: for relative thermodynamic stability: slurry in methanol or ethanol at 5° C., room temperature and 50° C. for one week. As to the method:
The relative thermodynamic stability of Compound (I) form 1 and Compound (I) form 7 was elucidated using competitive slurry experiments as detailed in the following.
Step 1: Compound (I) form 1 (150 mg) and Compound (I) form 7 (150 mg) were mixed in a 20 mL vial. 40 mg (each) of this physical mixture was placed into six 2 mL vials.
Step 2: Using the remaining 60 mg of the physical mixture, saturated solutions with methanol and ethanol, respectively, were produced. The saturated solutions were filtered off.
Step 3: 10 volumes ([…]) of each saturated solution were added to each of the six 2 mL vials mentioned in step 1.
Step 4: One vial for each solvent was kept at 5° C., room temperature and 50° C. for one week.
XRPD analysis carried out on the solids yielded a pattern substantially similar to FIG. 1 for all six vials.

A short description of data set [4]: Variable temperature XRPD of Compound (I) form 7. Conditions: VT-XRPD, heating 10° C./min. As to the method: Procedure 4 carried out under non-ambient conditions: For variable temperature (VT-XRPD) experiments the samples were prepared and analysed in an Anton Paar chromed sample holder. A heating/cooling rate of 10° C./min was used. The measurement parameters are as per the standard screening data collection method (detailed in Procedure 3 above). Measurements were taken at the following temperatures: 25, 100, 145, 150, 155, 160, 165, 170, 175, and 25° C.
Compound (I) form 7 obtained using the procedure detailed in Example 2 was subjected to variable temperature X-ray powder diffraction (VT-XRPD), as described in Example 10 (“[…]”).

The mark [5] stands for this setting: DVS, listed as Compound (I) HCl form 2.
[6] abbreviates: DVS, listed as Compound (I) HCl form 4.

On to `Cl.O=C(O)c1ccn(C(=O)N2CCC3(CCCN3Cc3ccc(C(F)(F)F)cc3N3CCCC3)CC2)n1` [Compound (I) HCl salt form 2, 1-(1-(2-(pyrrolidin-1-yl)-4-(trifluoromethyl)benzyl)-1,8-diazaspiro[4.5]decane-8-carbonyl)-1H-pyrazole-3-carboxylic acid HCl salt form 2], for which the “water uptake compared with the other HCl salt forms” value in data set [1] (DVS) is “lowest water uptake”. In data set [1] (setting [5]), the “water uptake up to 90% RH” value stood at 0.5 % wt and the “hygroscopicity by DVS analysis” value is “slightly hygroscopic”. Also, in data set [1] (listed as Form 2), the “Hygroscopicity in DVS, uptake at 90% RH” value was “(0.5 wt %”. Moreover, the “Stability at elevated conditions” value in data set [2] (listed as Form 2) is on record as “No change”. Also, in data set [2] (accelerated conditions), the “stability compared with the other HCl salt forms” value was “superior stability over Compound (I) HCl salt form 5 and form 6”.
Consider `Cl.O=C(O)c1ccn(C(=O)N2CCC3(CCCN3Cc3ccc(C(F)(F)F)cc3N3CCCC3)CC2)n1` [Compound (I) HCl salt form 4, 1-(1-(2-(pyrrolidin-1-yl)-4-(trifluoromethyl)benzyl)-1,8-diazaspiro[4.5]decane-8-carbonyl)-1H-pyrazole-3-carboxylic acid HCl salt form 4], for which, in data set [1] (setting [6]), the “water uptake up to 90% RH” value was 1.4 % wt and the “hygroscopicity by DVS analysis” value was “slightly hygroscopic”. The “Hygroscopicity in DVS, uptake at 90% RH” value in data set [1] (listed as Form 4) is given as “(1.4 wt %”. Further, the “Stability at elevated conditions” value in data set [2] (listed as Form 4) is listed as “No change”.
Turning to `O=C(O)c1ccn(C(=O)N2CCC3(CCCN3Cc3ccc(C(F)(F)F)cc3N3CCCC3)CC2)n1` [Compound (I) form 1, 1-(1-(2-(pyrrolidin-1-yl)-4-(trifluoromethyl)benzyl)-1,8-diazaspiro[4.5]decane-8-carbonyl)-1H-pyrazole-3-carboxylic acid], in data set [1] (DVS), the “water uptake up to 90% RH” value is below 1% and the “hygroscopicity by DVS analysis” value was “largely non-hygroscopic”. The “solid form by XRPD analysis after DVS analysis” value in data set [1] was “still Compound (I) form 1”. The relative thermodynamic stability entry in data set [3] is listed as “more thermodynamically stable than Compound (I) form 7 at all temperatures tested”. For the same compound, the relative thermodynamic stability result in data set [3] (listed as 1-(1-(2-(pyrrolidin-1-yl)-4-(trifluoromethyl)benzyl)-1,8-diazaspiro[4.5]decane-8)) is reported as “thermodynamically stable”.
With `O=C(O)c1ccn(C(=O)N2CCC3(CCCN3Cc3ccc(C(F)(F)F)cc3N3CCCC3)CC2)n1` [Compound (I) form 7, 1-(1-(2-(pyrrolidin-1-yl)-4-(trifluoromethyl)benzyl)-1,8-diazaspiro[4.5]decane-8-carbonyl)-1H-pyrazole-3-carboxylic acid], in data set [1] (DVS), the “water uptake up to 90% RH” value is recorded as around 6% and the “hygroscopicity by DVS analysis” value is “moderately hygroscopic”. Moreover, the “solid form by XRPD analysis after DVS analysis” value in data set [1] is given as “still Compound (I) form 7”. Also, the “form conversion in competitive slurry” value in data set [3] (methanol or ethanol, 5° C., room temperature, 50° C., one week) is “transforms into Compound (I) form 1 at all temperatures tested”. Moreover, in data set [4], the “temperature at which conversion to Compound (I) form 1 begins” value was 160 °C and the “temperature at which exclusively Compound (I) form 1 was obtained” value worked out at 170 °C.
